Test systems include 786-0 renal; A498 renal; CAKI-1 renal; HOP-62 NSCLC; HS 578T breast; IGROV1 ovarian; MALME-3M melanoma; MCF7 breast; MDA-N; OVCAR-8 ovarian; RPMI-8226 leukemia; SR leukemia; T-47D breast; UACC-257 melanoma; UACC-62 melanoma; RXF 393 renal; SK-MEL-2 melanoma; OVCAR-4 ovarian.
Assay in all cases: NCI-60 cell line screen, 48 h

This note sets out measurements from PubChem BioAssay (NCI).

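Protocol summary: plate cells (96-well), add compound at 5 concentrations, incubate 48 h, interpolate endpoints linearly. The concentration for full growth arrest is given as TGI.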

For `Cc1nn(C(=O)Cc2ccccc2)c2c1C(c1ccccc1)SC(N)=N2` (stereo not given), the TGI with 786-0 renal, in the assay on A498 renal, with CAKI-1 renal, with HOP-62 NSCLC, in the assay with HS 578T breast and with IGROV1 ovarian was greater than 100 µM throughout. For the same compound, the TGI in the assay on MALME-3M melanoma, in the assay on MCF7 breast, in the assay on MDA-N, with OVCAR-8 ovarian, in the assay on RPMI-8226 leukemia and with SR leukemia was greater than 100 µM throughout. In addition, the TGI with T-47D breast, in the assay with UACC-257 melanoma and with UACC-62 melanoma was greater than 100 µM throughout.
For the compound `COc1ccc(S(=O)(=O)n2c3c(c4ccccc42)[C@@H]2[C@@H](CCCN2C(=O)CS(=O)c2ccc(C)cc2)[C@H](Cl)C3)cc1` (stereo not given in full), the TGI in the assay on 786-0 renal, with A498 renal, in the assay with CAKI-1 renal, with HOP-62 NSCLC, with HS 578T breast and in the assay with IGROV1 ovarian was greater than 100 µM each time. Besides, the TGI in the assay with MALME-3M melanoma, in the assay on MCF7 breast, in the assay on MDA-N, with OVCAR-8 ovarian, with RXF 393 renal and in the assay with SK-MEL-2 melanoma was greater than 100 µM each time. Besides, the TGI with SR leukemia, in the assay on T-47D breast, in the assay on UACC-257 melanoma and in the assay with UACC-62 melanoma was greater than 100 µM in each case.
For `COc1ccc2oc3c(C)cc4c(OC)nnc(OC)c4c3c2c1`, the TGI in the assay with 786-0 renal, with A498 renal, with CAKI-1 renal, in the assay on HOP-62 NSCLC, in the assay on HS 578T breast and in the assay on MALME-3M melanoma was greater than 100 µM in each case. Also, the TGI with MCF7 breast, in the assay with MDA-N, with OVCAR-4 ovarian, in the assay on OVCAR-8 ovarian, in the assay with RPMI-8226 leukemia and in the assay with RXF 393 renal was greater than 100 µM each time. The TGI in the assay on SK-MEL-2 melanoma, in the assay with T-47D breast, in the assay with UACC-257 melanoma and with UACC-62 melanoma was greater than 100 µM throughout.
Take `N=c1oc2ccccc2cc1C(=O)NC12CC3CC(CC(C3)C1)C2`: the TGI with 786-0 renal is 9.92 µM; in the assay on A498 renal it was greater than 82.1 µM; with HOP-62 NSCLC it was greater than 83.7 µM; with HS 578T breast, greater than 100 µM; in the assay on IGROV1 ovarian it was greater than 65.6 µM; with MALME-3M melanoma, 98.2 µM. Moreover, the TGI with MCF7 breast is 18.3 µM; in the assay with MDA-N, greater than 100 µM; in the assay on OVCAR-4 ovarian, greater than 86.8 µM; in the assay on OVCAR-8 ovarian, greater than 100 µM; in the assay on RPMI-8226 leukemia, 31.1 µM; in the assay on RXF 393 renal it was 24.2 µM. The TGI in the assay on SK-MEL-2 melanoma stood at 31.3 µM; with SR leukemia, 11.4 µM; in the assay on T-47D breast, 22.7 µM; in the assay with UACC-257 melanoma, 70.9 µM; with UACC-62 melanoma, 62.6 µM.
Regarding `COC(=O)CC(C)(NS(=O)c1ccc(C)cc1)c1ccccc1` (stereo not given), the TGI in the assay on 786-0 renal, in the assay on A498 renal, with HOP-62 NSCLC, with HS 578T breast, in the assay on IGROV1 ovarian and with MALME-3M melanoma was greater than 100 µM each time. In addition, the TGI in the assay with MCF7 breast, with MDA-N, with OVCAR-4 ovarian, in the assay with RPMI-8226 leukemia, in the assay on RXF 393 renal and in the assay with SK-MEL-2 melanoma was greater than 100 µM throughout. Besides, the TGI with SR leukemia, with T-47D breast, in the assay on UACC-257 melanoma and in the assay with UACC-62 melanoma was greater than 100 µM in each case.
On to `CCCCCCc1cc2cc(-c3cn4ccsc4n3)c(=O)oc2cc1O`, for which the TGI in the assay with 786-0 renal is greater than 100 µM; in the assay on A498 renal it was greater than 100 µM; in the assay with CAKI-1 renal it was greater than 95.9 µM; with HOP-62 NSCLC it was greater than 100 µM; in the assay with HS 578T breast it was greater than 77 µM; in the assay on IGROV1 ovarian it was greater than 100 µM. Besides, the TGI in the assay with MCF7 breast was greater than 100 µM; in the assay on MDA-N it was greater than 22.8 µM; in the assay with OVCAR-4 ovarian, greater than 100 µM; in the assay on OVCAR-8 ovarian, greater than 71.8 µM; in the assay on RPMI-8226 leukemia, greater than 100 µM; in the assay with RXF 393 renal, greater than 94.8 µM. For the same compound, the TGI was greater than 100 µM with SK-MEL-2 melanoma; greater than 100 µM in the assay on SR leukemia; greater than 100 µM in the assay on T-47D breast; greater than 100 µM in the assay on UACC-257 melanoma; greater than 50.8 µM with UACC-62 melanoma.
`O=C(O)Cc1ccc([N+](=O)[O-])cc1[N+](=O)[O-]`: the TGI with 786-0 renal, in the assay on A498 renal, in the assay on CAKI-1 renal, with HOP-62 NSCLC, in the assay with HS 578T breast and with IGROV1 ovarian was greater than 100 µM in each case. For the same compound, the TGI in the assay with MALME-3M melanoma, with MCF7 breast, with MDA-N, with OVCAR-4 ovarian, in the assay on OVCAR-8 ovarian and in the assay with RPMI-8226 leukemia was greater than 100 µM in each case. The TGI in the assay with RXF 393 renal, with SK-MEL-2 melanoma, in the assay on T-47D breast, with UACC-257 melanoma and in the assay with UACC-62 melanoma was greater than 100 µM in each case.
Regarding `Cc1cc(OC(=O)Nc2cccc3ccccc23)c(C(C)C)cc1C(=S)Nc1ccccc1`, the TGI with 786-0 renal is 56.6 µM; with CAKI-1 renal, 54.7 µM; with HOP-62 NSCLC, 34.9 µM; in the assay on HS 578T breast, 55.2 µM; with IGROV1 ovarian, 30.4 µM; in the assay with MALME-3M melanoma, 36.8 µM. In addition, the TGI in the assay with MCF7 breast stood at 34.7 µM; with MDA-N, 33.3 µM; with OVCAR-4 ovarian, 35 µM; in the assay with OVCAR-8 ovarian it was 28.8 µM; in the assay on RPMI-8226 leukemia it was 75.8 µM; with SK-MEL-2 melanoma it was 28.3 µM. Further, the TGI in the assay on SR leukemia amounted to 33.5 µM; in the assay with T-47D breast it was 53.6 µM; with UACC-257 melanoma it was 50.5 µM; with UACC-62 melanoma, 26.5 µM.
